Read-outs that look alike come from different tables or passages of the source.

Among the data in patent publication US12428415B2, “Matriptase 2 inhibitors and uses thereof” (Disc Medicine, Inc., priority 2018, dated 2025) are inhibition values, retold here.

For this assay, the target named is T1, Human Recombinant Matriptase 2 (Homo sapiens, UniProt Q8IU80).
T1 construct: purchased Enzo Life Sciences (an in-house preparation was also used) ALX-201-752-1
T1 sequence (Q8IU80 1-811): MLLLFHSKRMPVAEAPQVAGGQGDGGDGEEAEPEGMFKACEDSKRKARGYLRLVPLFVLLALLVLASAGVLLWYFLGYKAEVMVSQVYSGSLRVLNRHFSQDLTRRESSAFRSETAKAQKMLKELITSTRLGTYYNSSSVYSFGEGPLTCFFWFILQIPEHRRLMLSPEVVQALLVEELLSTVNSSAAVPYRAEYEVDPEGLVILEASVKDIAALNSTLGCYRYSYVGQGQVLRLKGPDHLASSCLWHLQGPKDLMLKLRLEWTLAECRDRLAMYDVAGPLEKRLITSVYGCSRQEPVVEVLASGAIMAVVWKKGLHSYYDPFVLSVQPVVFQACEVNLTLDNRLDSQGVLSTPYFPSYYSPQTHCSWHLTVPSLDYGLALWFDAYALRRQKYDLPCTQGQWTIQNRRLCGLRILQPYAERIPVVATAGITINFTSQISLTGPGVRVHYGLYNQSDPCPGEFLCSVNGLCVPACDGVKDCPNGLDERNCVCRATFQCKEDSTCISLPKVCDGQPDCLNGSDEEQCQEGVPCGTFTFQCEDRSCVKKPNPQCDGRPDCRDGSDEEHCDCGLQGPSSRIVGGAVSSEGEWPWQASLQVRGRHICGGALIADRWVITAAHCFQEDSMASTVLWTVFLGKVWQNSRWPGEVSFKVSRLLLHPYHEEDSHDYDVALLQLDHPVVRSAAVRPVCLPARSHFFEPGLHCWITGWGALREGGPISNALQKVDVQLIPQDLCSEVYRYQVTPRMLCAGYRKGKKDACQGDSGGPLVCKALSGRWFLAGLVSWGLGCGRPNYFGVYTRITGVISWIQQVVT
As to the kind of experiment: Matriptase 2 fluorescence based inhibition assay, Method B (50 mM TRIS pH 7.5, 150 mM NaCl, 0.01% gelatin). Format: biochemical. The following applies: read-out: Mar-2 % inhibition at 1 uM. The essentials: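 Fluorogenic substrate Boc-Gln-Ala-Arg-7-amido-4-methylcoumarin (100 μM) cleavage read at Ex 360/Em 480 nm 60 min after addition, following 30 min enzyme–compound preincubation at 25° C. Enzyme was 7 nM commercial or 15 nM in-house; DMSO 1%. IC50s fitted by non-linear sigmoidal regression.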

Where [1] appears, read: 1 uM compound, Assay Used = B (Method B).
Where [2] appears, read: compound at 1 uM, Assay Used: B.

By inhibition is commonly meant the relative decrease from the control value, in per cent. Turning to `N=C(N)c1ccc2cc(C(=O)N[C@H]3CC[C@H](N)CC3)n(Cc3ccc(Br)c4ccccc34)c2c1` [Compound I-794], the inhibition at 1 µM under setting [1] fell in the range of 75 to 100%.

With `COc1ccc2c(Cn3c(C(=O)N[C@H]4CC[C@H](N)CC4)cc4ccc(/C(N)=N\O)cc43)cccc2c1` [Compound I-795], the inhibition at 1 µM under setting [1] is 0 to 25%.

As to `N=C(N)c1ccc2cc(C(=O)N[C@H]3CC[C@H](N)CC3)n(Cc3cc(C(N)=O)cc4ccccc34)c2c1` [Compound I-796, N-((1r, 4r)-4-aminocyclohexyl)-6-carbamimidoyl-1-((3-carbamoylnaphthalen-1-yl)methyl)-1H-indole-2-carboxamide], the inhibition at 1 µM under setting [1] fell in the range of 50 to 75%.

In the case of `COc1cccc2c(Cn3c(C(=O)N[C@H]4CC[C@H](N)CC4)cc4ccc(C(=N)N)cc43)cccc12` [Compound I-797], the inhibition at 1 µM under setting [2] lay within 75 to 100%.

Take `CN(C)C(=O)c1ccc(Cn2c(C(=O)N[C@H]3CC[C@H](N)CC3)cc3ccc(C(=N)N)cc32)c2ccccc12` [Compound I-798]: the inhibition at 1 µM under setting [2] lay within 50 to 75%.

As for `COc1ccc2ccccc2c1Cn1c(C(=O)N[C@H]2CC[C@H](N)CC2)cc2ccc(C(=N)N)cc21` [Compound I-799], the inhibition at 1 µM under setting [2] fell in the range of 0 to 25%.

Turning to `N=C(N)c1ccc2cc(C(=O)N[C@H]3CC[C@H](N)CC3)n(Cc3cc(CO)cc4ccccc34)c2c1` [Compound I-800, N-((1r,4r)-4-aminocyclohexyl)-6-carbamimidoyl-1-((3-(hydroxymethyl)naphthalen-1-yl)methyl)-1H-indole-2-carboxamide], the inhibition at 1 µM under setting [2] fell in the range of 25 to 50%.

With `CNCCCOc1ccc2c(Cn3c(C(=O)O)cc4ccc(C(=N)N)cc43)cccc2c1` [Compound I-801, 6-carbamimidoyl-1-((6-(3-(methylamino)propoxy)naphthalen-1-yl)methyl)-1H-indole-2-carboxylic Acid], under setting [2], the inhibition at 1 µM fell in the range of 50 to 75%.

On to `C[C@@H](c1cccc2ccccc12)n1c(C(=O)N[C@H]2CC[C@H](N)CC2)cc2ccc(/C(N)=N/O)cc21` [Compound I-802], for which the inhibition at 1 µM under setting [2] fell in the range of 0 to 25%.

As to `N=C(N)c1ccc2cc(-c3nnn[nH]3)n(Cc3cccc4ccccc34)c2c1` [Compound I-803, 1-(naphthalen-1-ylmethyl)-2-(1H-tetrazol-5-yl)-1H-indole-6-carboximidamide], under setting [2], the inhibition at 1 µM was 75 to 100%.

As for `CN(C)CCCOc1ccc2c(Cn3c(C(=O)N[C@H]4CC[C@H](N)CC4)cc4ccc(C(=N)N)cc43)cccc2c1` [Compound I-804, N-((1r,4r)-4-aminocyclohexyl)-6-carbamimidoyl-1-((6-(3-(dimethylamino)propoxy)naphthalen-1-yl)methyl)-1H-indole-2-carboxamide], under setting [2], the inhibition at 1 µM was in the range of 75 to 100%.

For the compound `C[C@@H](c1cccc2ccccc12)n1c(C(=O)N[C@H]2CC[C@H](N)CC2)cc2ccc(C(=N)N)cc21` [Compound I-805], the inhibition at 1 µM under setting [2] was 0 to 25%.

Consider `N=C(N)c1ccc2cc(C(=O)N[C@H]3CC[C@H](N)CC3)n(Cc3cc(C(=O)O)cc4ccccc34)c2c1` [Compound I-806], for which, under setting [2], the inhibition at 1 µM lay in the range of 50 to 75%.

In the case of `CN(C)CCCOc1ccc2c(Cn3c(C(=O)O)cc4ccc(C(=N)N)cc43)cccc2c1` [Compound I-808], the inhibition at 1 µM under setting [2] lay within 50 to 75%.

As to `N/C(=N\O)c1ccc2cc(C(=O)NC3CCNCC3)n(Cc3cccc4ccccc34)c2c1` [Compound I-809], the inhibition at 1 µM under setting [2] lay within 25 to 50%.

In the case of `N/C(=N\O)c1ccc2cc(C(=O)O[C@H]3CC[C@H](N)CC3)n(Cc3cccc4ccccc34)c2c1` [Compound I-810, (1r,4r)-4-aminocyclohexyl 6-((Z)—N′-hydroxycarbamimidoyl)-1-(naphthalen-1-ylmethyl)-1H-indole-2-carboxylate], under setting [2], the inhibition at 1 µM lay in the range of 25 to 50%.

Regarding `N=C(N)c1ccc2cc(C(=O)OC3CCCCC3)n(Cc3cccc4ccccc34)c2c1` [Compound I-811], under setting [2], the inhibition at 1 µM fell in the range of 25 to 50%.

`CCOC(=O)c1cc(Cn2c(C(=O)N[C@H]3CC[C@H](N)CC3)cc3ccc(C(=N)N)cc32)c2ccccc2c1` [Compound I-812]: the inhibition at 1 µM under setting [2] was 75 to 100%.

For `N=C(N)c1ccc2cc(C(=O)N[C@H]3CC[C@H](N)CC3)n(Cc3cccc4sc(CO)cc34)c2c1` [Compound I-813, N-((1r,4r)-4-aminocyclohexyl)-6-carbamimidoyl-1-((2-(hydroxymethyl)benzo[b]thiophen-4-yl)methyl)-1H-indole-2-carboxamide], the inhibition at 1 µM under setting [2] fell in the range of 50 to 75%.

Consider `N=C(N)c1ccc2cc(C(=O)N[C@H]3CC[C@H](N)CC3)n(Cc3cccc4c3CCCC4)c2c1` [Compound I-814], for which the inhibition at 1 µM under setting [2] fell in the range of 25 to 50%.

On to `N=C(N)c1ccc2cc(C(=O)N[C@H]3CC[C@H](N)CC3)n(Cc3cccc4sc(C(=O)O)cc34)c2c1` [Compound I-815, 4-((2-(((1r,4r)-4-aminocyclohexyl)carbamoyl)-6-carbamimidoyl-1H-indol-1-yl)methyl) benzo[b]thiophene-2-carboxylic Acid], for which the inhibition at 1 µM under setting [2] was 50 to 75%.

Regarding `N=C(N)c1ccc2cc(C(=O)NC3CCNC[C@@H]3F)n(Cc3cccc4ccccc34)c2c1` (stereo partly drawn) [Compound I-816], under setting [2], the inhibition at 1 µM lay in the range of 75 to 100%.

With `N=C(N)c1ccc2cc(C(=O)N[C@H]3CC[C@H](N)CC3)n(CCCc3cccc4ccccc34)c2c1` [Compound I-817], the inhibition at 1 µM under setting [2] was in the range of 0 to 25%.

Take `N=C(N)c1ccc2cc(C(=O)N[C@H]3CC[C@H](N)CC3)n(Cc3cccc4ccsc34)c2c1` [Compound I-818]: the inhibition at 1 µM under setting [2] lay in the range of 50 to 75%.

Take `N=C(N)c1ccc2cc(C(=O)N[C@H]3CC[C@H](N)CC3)n(Cc3cc(Br)cc4ccccc34)c2c1` [Compound I-819]: the inhibition at 1 µM under setting [2] fell in the range of 75 to 100%.

In the case of `Cc1cccc2sc(Cn3c(C(=O)N[C@H]4CC[C@H](N)CC4)cc4ccc(C(=N)N)cc43)cc12` [Compound I-820], the inhibition at 1 µM under setting [2] lay within 25 to 50%.

For `N=C(N)c1ccc2cc(C(=O)O)n(Cc3cccc4cc(O)ccc34)c2c1` [Compound I-821], the inhibition at 1 µM under setting [2] was in the range of 75 to 100%.

In the case of `COC(=O)c1cc2c(Cn3c(C(=O)N[C@H]4CC[C@H](N)CC4)cc4ccc(C(=N)N)cc43)cccc2s1` [Compound I-822], the inhibition at 1 µM under setting [2] was in the range of 50 to 75%.

As for `N=C(N)c1ccc2cc(C(=O)N[C@H]3CC[C@H](N)CC3)n(Cc3cccc4sccc34)c2c1` [Compound I-823], the inhibition at 1 µM under setting [2] fell in the range of 50 to 75%.

Consider `N=C(N)c1ccc2cc(C(=O)N[C@H]3CC[C@H](N)CC3)n(Cc3ccc(CO)c4ccccc34)c2c1` [Compound I-824], for which the inhibition at 1 µM under setting [2] was 75 to 100%.

As for `COC(=O)c1ccc(Cn2c(C(=O)N[C@H]3CC[C@H](N)CC3)cc3ccc(C(=N)N)cc32)c2ccccc12` [Compound I-825], the inhibition at 1 µM under setting [2] was in the range of 75 to 100%.

For the compound `N=C(N)c1ccc2cc(C(=O)NCCc3c[nH]c4ccc(O)cc34)n(Cc3cc(Oc4ncccn4)cc4ccccc34)c2c1` [Compound I-826], the inhibition at 1 µM under setting [2] was in the range of 25 to 50%.

As to `N=C(NN)c1ccc2cc(C(=O)N[C@H]3CC[C@H](N)CC3)n(Cc3cccc4ccccc34)c2c1` [Compound I-827, N-((1r,4r)-4-aminocyclohexyl)-6-(hydrazineyl(imino)methyl)-1-(naphthalen-1-ylmethyl)-1H-indole-2-carboxamide], the inhibition at 1 µM under setting [2] was in the range of 25 to 50%.
